Here are results for 15 compounds from ChEMBL document CHEMBL1137401, “Structure-activity relationship studies on a novel series of (S)-2beta-substituted 3alpha-[bis(4-fluoro- or 4-chlorophenyl)methoxy]tropane analogues for in vivo investigation” (J Med Chem, 2006).

The source made the active and inactive calls. The calls are words filed in the database; no cut-off is given here.

The target of experiment [1] is Norepinephrine transporter (Rattus norvegicus, UniProt Q9WTR4). Nature of the experiment: Displacement of [3H]nisoxetine from NET in Sprague-Dawley rat brain. The format is tissue-based.
The species entered for experiment [2] is Rattus norvegicus. Nature of the experiment: Selectivity for Sprague-Dawley rat DAT over rat M1 receptor.
Experiment [3] addresses T1, Sodium-dependent dopamine transporter (Rattus norvegicus, UniProt P23977). Nature of the experiment: Inhibition of [3H]dopamine uptake at DAT in Sprague-Dawley rat brain.
The target in experiment [4] is T2, Muscarinic acetylcholine receptor M1 (Rattus norvegicus, UniProt P08482).
T2 sequence (P08482 whole entry): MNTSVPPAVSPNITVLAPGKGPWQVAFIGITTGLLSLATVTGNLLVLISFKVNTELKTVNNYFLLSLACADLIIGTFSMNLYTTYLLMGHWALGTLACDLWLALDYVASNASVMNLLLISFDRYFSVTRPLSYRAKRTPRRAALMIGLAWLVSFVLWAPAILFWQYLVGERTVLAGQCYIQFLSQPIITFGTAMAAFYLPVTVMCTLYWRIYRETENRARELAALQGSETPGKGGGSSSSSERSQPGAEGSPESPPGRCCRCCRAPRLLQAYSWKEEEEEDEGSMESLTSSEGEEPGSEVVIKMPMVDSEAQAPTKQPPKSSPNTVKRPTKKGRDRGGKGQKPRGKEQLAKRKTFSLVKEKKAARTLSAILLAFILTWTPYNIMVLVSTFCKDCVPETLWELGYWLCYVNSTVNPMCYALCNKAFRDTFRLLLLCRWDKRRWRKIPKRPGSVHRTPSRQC
Nature of the experiment: Displacement of [3H]pirenzepine from M1 receptor in Sprague-Dawley rat brain. (In general: Displacement assays read how much labelled ligand stays bound in the presence of the test substance.)

Experiment [5] has as its target T1, Sodium-dependent dopamine transporter. Nature of the experiment: biochemical. The format is tissue-based, Sprague-Dawley, Brain.
Description: Displacement of [3H]WIN-35428 from DAT in Sprague-Dawley rat brain
The target in experiment [6] is Sodium-dependent serotonin transporter (Rattus norvegicus, UniProt P31652). Nature of the experiment: Displacement of [3H]citalopram from SERT in Sprague-Dawley rat brain. Type of experiment: tissue-based.
Experiment [7] is filed under the species Rattus norvegicus. Nature of the experiment: Drug discriminative activity in Sprague-Dawley rat measured as response on cocaine-appropriate lever. The format is functional.

Sequence of Sodium-dependent serotonin transporter (P31652 whole entry): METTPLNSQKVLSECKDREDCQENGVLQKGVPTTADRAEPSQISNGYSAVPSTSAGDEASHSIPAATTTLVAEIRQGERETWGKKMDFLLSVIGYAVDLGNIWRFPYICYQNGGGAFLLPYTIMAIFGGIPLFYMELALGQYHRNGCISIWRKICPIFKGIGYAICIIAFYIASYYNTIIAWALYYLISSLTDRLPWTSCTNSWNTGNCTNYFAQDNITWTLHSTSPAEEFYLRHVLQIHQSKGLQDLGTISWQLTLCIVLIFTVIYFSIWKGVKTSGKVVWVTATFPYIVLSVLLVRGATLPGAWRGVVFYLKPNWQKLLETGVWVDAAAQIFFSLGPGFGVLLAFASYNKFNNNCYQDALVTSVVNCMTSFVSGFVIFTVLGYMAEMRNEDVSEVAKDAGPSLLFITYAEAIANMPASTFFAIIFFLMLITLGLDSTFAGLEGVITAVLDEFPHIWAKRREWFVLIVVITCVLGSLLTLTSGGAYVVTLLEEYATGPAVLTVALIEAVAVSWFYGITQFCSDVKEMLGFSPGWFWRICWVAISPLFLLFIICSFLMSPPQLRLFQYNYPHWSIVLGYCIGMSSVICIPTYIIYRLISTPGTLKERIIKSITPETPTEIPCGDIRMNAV
T1 sequence (P23977 whole entry): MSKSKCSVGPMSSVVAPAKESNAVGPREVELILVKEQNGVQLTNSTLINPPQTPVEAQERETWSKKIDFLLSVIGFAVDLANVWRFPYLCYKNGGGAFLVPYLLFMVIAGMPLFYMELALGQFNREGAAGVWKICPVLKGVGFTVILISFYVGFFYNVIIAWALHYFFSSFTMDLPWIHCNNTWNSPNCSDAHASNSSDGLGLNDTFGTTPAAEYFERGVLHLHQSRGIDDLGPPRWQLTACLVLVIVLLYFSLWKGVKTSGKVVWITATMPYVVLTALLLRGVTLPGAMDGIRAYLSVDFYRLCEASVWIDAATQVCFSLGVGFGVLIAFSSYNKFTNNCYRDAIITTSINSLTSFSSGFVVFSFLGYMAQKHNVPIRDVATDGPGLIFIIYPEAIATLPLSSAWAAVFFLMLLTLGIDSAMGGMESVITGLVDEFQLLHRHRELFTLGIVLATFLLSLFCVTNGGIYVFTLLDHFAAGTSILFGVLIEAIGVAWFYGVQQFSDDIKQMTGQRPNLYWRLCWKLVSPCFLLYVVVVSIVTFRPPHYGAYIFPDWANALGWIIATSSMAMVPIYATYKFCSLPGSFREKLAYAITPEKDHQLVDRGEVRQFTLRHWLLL
Sequence of Norepinephrine transporter (Q9WTR4 whole entry): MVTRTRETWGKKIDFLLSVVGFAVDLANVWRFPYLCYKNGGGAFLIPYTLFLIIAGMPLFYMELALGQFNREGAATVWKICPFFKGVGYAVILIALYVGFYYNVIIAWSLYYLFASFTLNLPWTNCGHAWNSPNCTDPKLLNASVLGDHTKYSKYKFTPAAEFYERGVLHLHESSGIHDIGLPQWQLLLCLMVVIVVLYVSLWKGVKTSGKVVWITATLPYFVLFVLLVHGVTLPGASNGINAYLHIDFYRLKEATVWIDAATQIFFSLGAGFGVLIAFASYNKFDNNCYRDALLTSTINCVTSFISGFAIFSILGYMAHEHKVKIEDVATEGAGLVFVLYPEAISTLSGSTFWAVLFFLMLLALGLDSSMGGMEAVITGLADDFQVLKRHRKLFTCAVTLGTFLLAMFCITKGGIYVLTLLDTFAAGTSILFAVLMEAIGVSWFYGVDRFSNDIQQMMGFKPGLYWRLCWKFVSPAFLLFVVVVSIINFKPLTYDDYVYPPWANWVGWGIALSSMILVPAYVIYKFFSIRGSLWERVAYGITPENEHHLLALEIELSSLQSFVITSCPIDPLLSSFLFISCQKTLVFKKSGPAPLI

What is called Ki is a measure of affinity in units of concentration, obtained from inhibition or displacement. In experiment [1], `CCCCN1C2CCC1[C@@H](C(=O)OCC)[C@@H](OC(c1ccc(F)cc1)c1ccc(F)cc1)C2` (stereo partly specified) came in with a Ki of 580 nM. Further, the Ratio Ki in experiment [2] was 391.
As a reminder, the IC50 is the midpoint of a concentration-inhibition curve. For `COC(=O)[C@@H]1C2CCC(C[C@@H]1OC(c1ccc(Cl)cc1)c1ccc(Cl)cc1)N2C` (stereo partly specified), the IC50 in experiment [3] stood at 2.46 nM. The Ki came to 382 nM in experiment [4], 12.6 nM in experiment [5], 528 nM in experiment [6] and 2150 nM in experiment [1]. In experiment [2], the Ratio Ki was determined as 30.
`CCOC(=O)[C@@H]1C2CCC(C[C@@H]1OC(c1ccc(Cl)cc1)c1ccc(Cl)cc1)N2C` (stereo partly specified) displayed an IC50 in experiment [3] of 1.52 nM. Besides, the Ki was determined as 3060 nM in experiment [4], 14.6 nM in experiment [5], 1560 nM in experiment [6] and 3350 nM in experiment [1].
Regarding `CN1C2CCC1[C@@H](COC(=O)CCCc1ccc([N+](=O)[O-])cc1)[C@@H](OC(c1ccc(F)cc1)c1ccc(F)cc1)C2` (stereo partly specified), the Ki in experiment [4] came to 708 nM; in experiment [6], 3780 nM; in experiment [1], 2130 nM. Moreover, the Ratio Ki in experiment [2] came to 18.
In experiment [1], `COC(=O)/C=C/[C@@H]1C2CCC(C[C@@H]1OC(c1ccc(F)cc1)c1ccc(F)cc1)N2C` (stereo partly specified) gave a Ki of 269 nM. Besides, the Ratio Ki in experiment [2] was 294.
Regarding `CN1C2CCC1[C@@H](CO)[C@@H](OC(c1ccc(F)cc1)c1ccc(F)cc1)C2` (stereo partly specified), the figures for the Ki in experiment [5] and in experiment [1] were 3.4 nM and 983 nM, respectively. The Ratio Ki in experiment [2] was 31.
On to `CCOC(=O)[C@@H]1C2CCC(C[C@@H]1OC(c1ccc(F)cc1)c1ccc(F)cc1)N2C` (stereo partly specified), for which, in experiment [2], the Ratio Ki was 275.
On to `COC(=O)[C@@H]1C2CCC(C[C@@H]1OC(c1ccc(F)cc1)c1ccc(F)cc1)N2C` (stereo partly specified), for which the Ratio Ki in experiment [2] turned out to be 45.
In the case of `CCOC(=O)[C@@H]1C2CCC(C[C@@H]1OC(c1ccc(F)cc1)c1ccc(F)cc1)N2` (stereo partly specified), in experiment [1], affinity was put at a Ki of 563 nM. The Ratio Ki in experiment [2] came out at 1930.
Compound `C=C[C@@H]1C2CCC(C[C@@H]1OC(c1ccc(F)cc1)c1ccc(F)cc1)N2C` (stereo partly specified) registered a Ki in experiment [1] of 473 nM. Moreover, the Ratio Ki in experiment [2] was 90.
For `COC(=O)CC[C@@H]1C2CCC(C[C@@H]1OC(c1ccc(F)cc1)c1ccc(F)cc1)N2C` (stereo partly specified), in that order: 454 nM and 832.
In experiment [1], `CN1C2CCC1[C@@H](COC(=O)CCCc1ccc(N)cc1)[C@@H](OC(c1ccc(F)cc1)c1ccc(F)cc1)C2` (stereo partly specified) yielded a Ki of 440 nM. Further, the Ratio Ki in experiment [2] came out at 12.
Take `COC(=O)C1C(OC(c2ccc(Cl)cc2)c2ccc(Cl)cc2)CC2CCC1N2C` (racemic): the outcome in experiment [7] was inactive.
Turning to `C=CCN1C2CCC1[C@@H](C(=O)OCC)[C@@H](OC(c1ccc(F)cc1)c1ccc(F)cc1)C2` (stereo partly specified), the Ki in experiment [1] worked out at 935 nM. For the same compound, the Ratio Ki in experiment [2] came to 1040.
In the case of `CN1C2CCC1CC(OC(c1ccc(F)cc1)c1ccc(F)cc1)C2` (stereo unspecified) [DIFLUOROBENZTROPINE], the Activity in experiment [7] is reported as 65%.
